Measurements: US20240327463A1, “ANTIBACTERIAL PRODUCTS” (priority 2017, published 2024)
In brackets after ≈: the same amount, converted by molar mass. One block for each compound: values may come before it. Bridge positions count the residues as written; N and C are the ends. Square brackets hold non-standard residues; d marks the D form. Peptide text beside a SMILES is read from it. * marks the point of attachment. dNMeF = CN[C@H](Cc1ccccc1)C(=O)O; X1 = NCC(CN)OC(=O)*

Key:
[1] = test system: MRSA ATCC 33591; conditions: for MIC (MRSA*): ATCC 33591
In short: (§1)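 Twofold dilutions of DMSO-solubilised peptides (from 512 μg/ml) in Mueller Hinton; 24 h incubation, 37° C; visible growth scored.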

[2] = test system: MRSA DM21455 (eye); assay: microbe, parasite or virus in culture; conditions: DM21455 (eye)
In short: as §1

[3] = test system: VRE ATCC 700802; assay: microbe, parasite or virus in culture; conditions: ATCC 700802
In short: as §1

[4] = test system: Staphylococcus aureus ATCC 29213; assay: microbe, parasite or virus in culture
In short: as §1

[5] = test system: MRSA DR 42412 (sputum); assay: microbe, parasite or virus in culture; conditions: DR 42412 (sputum)
In short: as §1

[6] = test system: VRE ATCC 29212; assay: microbe, parasite or virus in culture; conditions: ATCC 29212
In short: as §1

[7] = test system: MRSA ATCC 700699; assay: microbe, parasite or virus in culture; conditions: ATCC 700699
In short: as §1

[8] = test system: M. smegmatis ATCC 607; assay: microbe, parasite or virus in culture; conditions: ATCC 607
In short: as §1

[9] = test system: Mycobacterium smegmatis; assay type: cell-based
In short: (§2)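 Values come from three repeat experiments. Growth and compound dilution both used Mueller Hinton broth, with the dilution series extended to well 11 and every incubation held at 37 °C.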

[10] = test system: Pseudomonas aeruginosa; assay: Activity against Pseudomonas aeruginosa; assay type: cell-based
Excerpt: (§3) The inclusion of 3 arginines in the above case likely perturbs the amphiphilic character of the teixobactin, resulting in a decrease in activity. […] Importantly, the hydrophobic-hydrophilic balance of these analogues was similar to natural teixobactin (two cationic charges). […] The minimum bactericidal concentrations (MBC) of teixobactin analogues against S. aureus/MRSA strains (Table 11) has been further determined. […] In view of narrow MIC distribution values and bactericidal properties, attention was focused on Compound 26 and further investigated its biological properties.

[11] = test system: S. aureus/MRSA strains; assay: Minimum bactericidal concentrations against S. aureus/MRSA strains; assay type: cell-based, Staphylococcus aureus; conditions: tested S. aureus/MRSA strains
Excerpt: as §3

[12] = test system: S. aureus ATCC 29213; assay: Mice-eye model of S. aureus keratitis; assay type: in vivo; conditions: for mean corneal thickness: baseline 93.8±2.9 μm
Excerpt: The in vivo efficacy of Compound 26 in the mice-eye model of S. aureus keratitis was examined. S. aureus is one of the major etiological agents for bacterial keratitis and the toxic secretions produced by this microorganism have been implicated in corneal melt, leading to significant morbidity and vision loss. […] A total of 8 doses were applied and the progression of the infection was monitored by slit lamp examination, anterior segment optical coherent tomography (AS-OCT) and microbiological enumeration of the bacterial bioburden. Mice cornea treated with PBS had severe clinical presentation indicated by chemosis, significant presence of hypopyon like materials and corneal infiltrates (FIG. 4).

[13] = test system: panel of antibiotic-resistant and antibiotic susceptible Gram-positive pathogens; conditions: average over tested strains
In short: as §1

[14] = test system: S. aureus ATCC 29213; assay: Time-kill kinetics against S. aureus ATCC 29213; assay type: cell-based, Staphylococcus aureus; conditions: 0.5 μg/ml or 1 μg/ml; at 8 h
[15] = test system: human lung epithelial cell line A549; assay: in vitro
Description: (§4) It was important to evaluate the cytotoxicity of Compound 26 on mammalian cells prior to in vivo studies. The cytotoxicity of Compound 26 in human lung epithelial cell line A549 and primary dermal fibroblasts (hDFs) was determined. Both of these cell culture models are already established for evaluation of cytotoxicity of antimicrobial peptides.
(§5) The stock solution of Compound 26 (500 μg/ml) was prepared fresh by directly dissolving Compound 26 in cell culture medium and used. Cells were treated with dimethyl sulfoxide (DMSO, 0.1% v/v) or nocodazole (5 μg/ml dissolved in DMSO) as controls. At the end of the treatment period, metabolic activities of cells were quantified by MTS-based cell viability assay. […] After 24 h treatment with Compound 26, A549 cells (c) and hDFs (d) were fixed, fluorescently stained with rhodamine-phalloidin (red), alexa fluor 488 conjugated anti-α-tubulin (green) and Hoechst 33342 (blue) and imaged using IN Cell Analyzer 2200 automated microscope. Representative images of cells treated with Compound 26 (62.5 μg/ml for 24 h) or nocodazole (10 μg/ml, toxicity control) are shown in FIG. 2 c,d.

[16] = in vitro; conditions: human
Description: as §4, §5

[17] = test system: human primary dermal fibroblasts (hDFs); assay: in vitro
Description: as §4, §5

[18] = rabbit; 50 μl of 0.3% (w/v) topically 4 times/day; fluorescein staining
Description: The in vivo toxicity of Compound 26 in a rabbit corneal damage model was examined. A 50 μl of 0.3% (w/v) solution was applied topically (4 times/day) to the circularly debrided cornea and reepithelialisation was monitored by fluorescein staining. Vehicle alone served as control.

[19] = test system: S. aureus ATCC 29213
[20] = test system: MRSA ATCC 33591
[21] = test system: MRSA 1003; assay type: cell-based, Staphylococcus aureus
In short: as §2

[22] = test system: Bacillus Subtilis ATCC 6633; assay type: cell-based
In short: as §2

[23] = test system: Bacillus Cereus ATCC 11788; assay type: cell-based
In short: as §2

[24] = test system: Staphylococcus saprophyticus ATCC BAA 750; assay type: cell-based; conditions: Staphylococcus saprophyticus ATCC BAA 750; Table 11
In short: as §2

[25] = test system: Staphylococcus saprophyticus ATCC 49907; assay type: cell-based; conditions: Staphylococcus saprophyticus ATCC 49907; Table 11
In short: as §2

[26] = test system: Staphylococcus saprophyticus ATCC 49453; assay type: cell-based; conditions: Staphylococcus saprophyticus ATCC 49453; Table 11
In short: as §2

[27] = test system: Staphylococcus saprophyticus ATCC 15305; assay type: cell-based; conditions: Staphylococcus saprophyticus ATCC 15305; Table 11
In short: as §2

[28] = test system: VRE 1002; assay type: cell-based, Enterococcus faecalis
In short: as §2

[29] = test system: VRE 1008; assay type: cell-based, Enterococcus faecalis
In short: as §2

[30] = test system: VRE 1004; assay type: cell-based, Enterococcus faecalis
In short: as §2

[31] = test system: VRE 1001; assay type: cell-based, Enterococcus faecalis
In short: as §2

MIC (MRSA*) [1]: 1 to 2 µg/mL | MIC [2]: 1 µg/mL (≈ 0.863 µM) | MIC [3]: 4 µg/mL (≈ 3.45 µM) | MIC ([4]; ATCC 29213): 1 µg/mL (≈ 0.863 µM) | MIC [5]: 1 µg/mL (≈ 0.863 µM) | MIC [6]: 4 µg/mL (≈ 3.45 µM) | MIC [7]: 4 µg/mL (≈ 3.45 µM) | MIC [8]: 1 to 2 µg/mL | MIC (μg/mL) Mycobacterium smegmatis [9]: 2 µg/mL (≈ 1.73 µM)
SMILES: CC[C@@H](C)[C@@H](NC(=O)[C@@H](CCC(N)=O)NC(=O)[C@H](CO)NC(=O)[C@@H](NC(=O)[C@@H](Cc1ccccc1)NC)[C@@H](C)CC)C(=O)N[C@H](C(=O)N[C@@H](CO)C(=O)N[C@H]1C(=O)N[C@@H](C)C(=O)N[C@@H](C)C(=O)N[C@@H]([C@@H](C)CC)C(=O)O[C@H]1C)[C@@H](C)CC [Compound 14]
MBC [2]: 2 µg/mL (≈ 1.73 µM) | MBC ([4]; ATCC 29213): 2 µg/mL (≈ 1.73 µM) | MBC [5]: 4 µg/mL (≈ 3.45 µM) | MBC [7]: 16 µg/mL (≈ 13.8 µM)

MIC (MRSA*) [1]: 0.25 µg/mL (≈ 0.188 µM) | MIC (μg/mL) Mycobacterium smegmatis [9]: 0.5 µg/mL (≈ 0.375 µM)
SMILES: CC[C@@H](C)[C@@H](NC(=O)[C@@H](CCC(N)=O)NC(=O)[C@H](CO)NC(=O)[C@@H](NC(=O)[C@@H](Cc1ccccc1)NC)[C@@H](C)CC)C(=O)N[C@H](C(=O)N[C@@H](CO)C(=O)N[C@H]1C(=O)N[C@@H](C)C(=O)N[C@@H](CCCCNC(=O)OC(CN)CN)C(=O)N[C@@H]([C@@H](C)CC)C(=O)O[C@H]1C)[C@@H](C)CC [Compound 21, Diamino10-Teixobactin] (H-[dNMeF]IS[dQ][dI]IS[dT]AK(X1)I; ester 8-C)

SMILES: CC[C@@H](C)[C@@H](NC(=O)[C@@H](CCCNC(=N)N)NC(=O)[C@H](CO)NC(=O)[C@@H](NC(=O)[C@@H](Cc1ccccc1)NC)[C@@H](C)CC)C(=O)N[C@H](C(=O)N[C@@H](CO)C(=O)N[C@H]1C(=O)N[C@@H](C)C(=O)N[C@@H](CC(C)C)C(=O)N[C@@H]([C@@H](C)CC)C(=O)O[C@H]1C)[C@@H](C)CC [Compound 26, D-Arg4-Leu10-teixobactin]
activity against Pseudomonas aeruginosa (Gram negative bacteria) [10]: inactive | MBC relative to MIC [11]: ≤ 4 times the MIC | mean corneal thickness ([12]; 24 h post treatment, 0.3% topical): 92.3±12.5 μm | mean corneal thickness ([12]; 48 h post treatment, 0.3% topical): 121.7±3.2 μm | cornea with detectable bacterial colonies ([12]; after 8 dosages): Five out of six | mean log10 CFU/tissue ([12]; corneal tissues harvested after 8 dosages, ± standard error of the mean): 3.97±0.19 log10 CFU/tissue | clinical appearance of infected cornea (slit lamp) ([12]; mice, 0.3% topical, 8 doses from 6 h p.i.): remained clear and no signs of corneal defects | average MIC [13]: 0.27 µg/mL | MIC (MRSA) ([1]; Table 10, MRSA ATCC 33591): 0.125 µg/mL (≈ 0.102 µM) | decrease in bacterial viability (time-kill) [14]: ≥log10 decrease in bacterial viability | cell morphology, high content images [15]: absence of any cytoskeletal and nuclear disruption | viability at 24 h, 250 µg/mL ([16]; A549 lung epithelial cells): 80% | viability at 24 h, 250 µg/mL ([16]; primary dermal fibroblasts (hDFs)): 80% | cell morphology, high content images [17]: absence of any cytoskeletal and nuclear disruption | corneal wound closure / reepithelialisation versus PBS [18]: no significant difference in wound closure | calculated frequency of resistance [19]: < 10^−10 | resistant mutants, single step resistance ([19]; 5×, 10×, 20×MIC): could not be obtained | calculated frequency of resistance [20]: < 10^−10 | resistant mutants, single step resistance ([20]; 5×, 10×, 20×MIC): could not be obtained | MIC [2]: 0.0313 µg/mL (≈ 0.0255 µM) | MIC [3]: 0.5 µg/mL (≈ 0.407 µM) | MIC ([4]; SA29213, Table 11): <0.0625 µg/mL | MIC [5]: 0.0313 µg/mL (≈ 0.0255 µM) | MIC [6]: 0.5 µg/mL (≈ 0.407 µM) | MIC [7]: 0.25 µg/mL (≈ 0.203 µM) | MIC [21]: 0.5 µg/mL (≈ 0.407 µM) | MIC [22]: 0.125 µg/mL (≈ 0.102 µM) | MIC [23]: 0.5 µg/mL (≈ 0.407 µM) | MIC [24]: <0.0625 µg/mL | MIC [25]: <0.0625 µg/mL | MIC [26]: <0.0625 µg/mL | MIC [27]: <0.0625 µg/mL | MIC [28]: 1 µg/mL (≈ 0.813 µM) | MIC [29]: 0.5 µg/mL (≈ 0.407 µM) | MIC [30]: 0.25 µg/mL (≈ 0.203 µM) | MIC [31]: 0.5 µg/mL (≈ 0.407 µM)
